According to patent US20110200531A1, “TREATMENT AND DIAGNOSIS OF CENTRAL NERVOUS SYSTEM DISORDERS” (THE REGENTS OF THE UNIVERSITY OF CALIFORNIA, priority 2009, published 2011):
Entries after “also recorded” stand apart in the source; their conditions may differ.

Legend:
[1] = system: rat brains following kainate-induced seizures; assay: Neuronal degeneration in rat brains following kainate-induced seizures (H&E, TUNEL); format: in vivo, Sprague-Dawley rats; details: KA 10.5 mg/Kg s.c., TMP 50 mg/Kg s.c. 1 hr after onset of seizures
Procedure: One month-old Sprague-Dawley rats were subcutaneously (s.c.) administrated kainite (KA) (10.5 mg/Kg). 1 hr after the onset of seizures animals were given TMP (50 mg/Kg, s.c.) or equal volume of vehicle. All the animals were sacrificed 24 hr after TMP or vehicle injection under deep anesthesia. […] Scale bar=100 μm in b, d, e, g, i, j, 1, n and o; and 400 μm in a, c, f, h, k and m.

[2] = system: Primary neurons treated with Aβ1-42; assay: Neuronal survival in primary neuronal cultures treated with pre-aggregated Aβ1-42; format: cell-based, C57BL mice; details: 50 μM TMP with pre-aggregated Aβ1-42
Procedure: Primary neurons prepared from postnatal 1 day C57BL mice were treated with pre-aggregated Aβ1-42 combined with either 50 μM TMP or equal volume of vehicle at day 5 after plating. […] Nuclei were counterstained as blue by Hoechst 33342 (Hoec). Scale bar=100 μm in b & e; 80 μm a, d, f; 60 μm in c; and 40 μm in B.

[3] = system: 3×Tg-AD mouse brain; assay: Brain pathology in 3×Tg-AD mice fed TMP-containing diet; format: in vivo
Procedure: (A) 16-month old triple-transgenic mice (3×Tg-AD, females) were fed with TMP containing (300 mg TMP/Kg diet) or nutrients-matched control diet made by BioSery (Frenchtown, N.J.) for 70 days. […] Animals were euthanized and perfused with PBS following behavioral analyses. Half the brain was fixed with 4% paraformaldehyde (PFA) in 1×PBS and sectioned using a microtome at 40 μm, while the other half-brain was dissected and rapidly frozen for biochemical analyses. […] The boxed areas in (a) is shown in (b) at higher magnification. […] The boxed areas in a & c are shown in b & d at higher magnification. Nuclei were stained as red by propidium iodide (PI). Scale bar=400 μm in A.a&c; 100 μm in B.a&c; 80 μm A.d&e, B.d; and 60 μm in A.b, B.b. (C) Glutathione (GSH) contents in the mouse brains were measured in the cortical lysates prepared from the 3×Tg AD mouse brains following TMP treatments or control using a Biovison Glutathione colorimetric detection kit. Lysates from age-matched untreated wild type mouse brains were used as controls (WT).
(§1) In these mice, the earliest pathological hallmark is the accumulation of intraneuronal Aβ in the hippocampus, cortex and amygdala in 4 month old 3×Tg-AD homozygous mice. […] Between 4-6 months of age 3×Tg-AD homozygous mice develop diffuse amyloid plaques in the neocortex. At 6 months the retention deficits are associated with significant impairments in spatial learning of the Morris Water Maze task. 16 Month old triple-transgenic female mice (3×Tg-AD) were fed TMP-containing (300 mg TMP/kg diet) or nutrients-matched control diet made by Biosery for 70 days. Brain and retina pathology was evaluated by immunohistochemistry with specific antibodies and learning and memory performance were scored using the Novel Object Recognition Task and using Morris Water Maze trials.

[4] = system: Thy1.2 promoter; assay: Luciferase-mediated Thy1.2 activity reporter in N2A cells; format: cell-based, mouse; details: TMP 50 μM, 24 hr
[5] = system: 3×Tg-AD mice; assay: Learning and memory in 3×Tg AD mice (novel object recognition, Morris water maze); format: in vivo; details: 16-month old 3×Tg-AD females
Procedure: Both 16-month old 3×Tg-AD and background-matched wild type (WT) mice (females) were fed with TMPcontaining or nutrients matched control for 60 days as described in FIG. 3. (A) On day 61, all the mice were tested for object recognition as previously described. Briefly, mice (n=14 for each group) were habituated to a 60×30 cm container for 5 min. Two identical objects were placed in the bottom of the cage as mirror images of each other. The animal was trained for 5 min followed by a 5 min retention interval in the home cage. Then one of the objects in the test container was replaced with a novel object. During the 3-min probe trial, the mouse was placed in the cage and time spent investigating both objects was measured. A recognition index (R1) score is depicted as: (TimeN (in seconds for novel object)/TimeTotal (in seconds for both old and novel objects))×100. (B-D) Starting on day 62, all the mice were trained for 9 days on the Morris water maze (MWM) exactly as described for the behavior testing. […] (C) MWMprobe trial for number of platform location crosses, and (D) MWM probe trial for time spent in the target quadrant. As shown by the p values, (*) indicates significant improvement by TMP treatments with respect to the corresponding controls.
FIG. 21A-D: Improvement of learning and memory in aged 3×Tg AD mice by TMP treatment. Novel object recognition task was performed. A recognition index (R1) score is depicted as: [TimeN (in seconds for novel object)/TimeTotal (in seconds for both old and novel objects)]×100. B-D Starting on day 62, all the mice were trained for 9 days on the Morris water maze (MWM) for the behavior testing. […] (C) MWM probe trial for number of platform location crosses, and (D) MWM probe trial for time spent in the target quadrant. As shown by the p values, (*) indicates significant improvement by the compound treatments with respect to the corresponding controls.
as §1, with “TMP improves pathology in brains of 3×Tg-AD mice and results in increased memory and learning (See FIGS. 3, 4, and 10). In” for “In”, “16 Month old triple-transgenic female mice (3×Tg-AD) were fed TMP-containing (300 mg TMP/kg diet) or nutrients-matched control diet made by Biosery for 70 days.” left out
The ability of TMP-N to improve learning and memory in 3×Tg AD mice was assessed using novel object recognition task. […]

[6] = system: cells under stress; assay: Production of peroxides in cells under stress; format: cell-based
[7] = system: retinas of 3×Tg-AD mice; assay: Retinal pathology in 3×Tg-AD mice; format: in vivo
[8] = system: 5×FAD mouse brains; assay: Abeta immunoreactivity (6E10) in 5×FAD mouse brains; format: in vivo, mice; details: chow containing 300 mg/Kg from postnatal day 61 for 4 months
Excerpt: Animal tissues were perfused with 1×PBS followed by overnight fixation in 4% paraformaldehyde in cold room. Vibrotome sections (˜50 μm thick) were immunostained with 6E10 antibody, which recognizes all forms of Abeta, and visualized by fluorescence microscopy.

## Cc1nc(C)c(C)nc1C [TMP, tetramethylpyrazine]
[1]; 24 hr
  Quantification of TUNEL-positive cells in the hippocampal regions: significant less number of damaged neurons
[1]; sacrificed 24 hr after
  neuronal damage/degeneration by H&E and TUNEL staining, hippocampal and piriform cortex regions: attenuates neuronal degeneration; also recorded: only exhibited a few sporadic pink (1) and TUNEL-positive cells
[2]
  mitochondrial depolarization (TMRM staining): very few cells
[2]; 24 hr
  neuronal survival / morphological changes showing neuronal degeneration (DIC microscopy): promotes neuronal survival; also recorded: not in these cells in the presence of TMP
[3]; 300 mg TMP/Kg diet, 70 days
  GFAP staining (astrocyte activation, astrogliosis) in brain: dramatically reduced Aβ accumulation and senile plaques as well as astrogliosis; also recorded: reduced intensity of GFAP staining
[3]; 300 mg TMP/Kg diet, 70 days, colorimetric kit
  Glutathione (GSH) contents in cortical lysates: significantly increase GSH contents
[3]; 300 mg TMP/Kg diet, about 40~50 mg/Kg daily per os, 70 days
  adverse effects on the health of animals: no adverse effects on the health of animals have been observed
[3]; 3×Tg AD mouse brains
  BACE-related APP cleavage and Aβ accumulation in brains: reduces BACE-related APP cleavage and Aβ accumulation
[3]; 16-month old females, 300 mg TMP/Kg diet, about 40~50 mg/Kg daily per os, 70 days, 50 mg/kg
  Aβ staining / Aβ accumulation and senile plaques in brain (immunohistochemistry): dramatically reduced Aβ accumulation and senile plaques; also recorded: markedly reduced levels of Aβ staining
[4]
  Thy1.2 activity (luciferase-positive cells relative to all transfected cells): no influence of TMP on Thy1.2 activity
[5]; TMP diet 60 days, trained 9 days from day 62
  Morris water maze (MWM) acquisition performance: significantly improved the performance of 3×Tg-AD mice
[5]; TMP-containing diet
  learning and memory (object recognition, MWM probe trials): significant improvements in learning and memory; also recorded: improves learning and memory
[6]
  production of peroxides: inhibits the production of peroxides
[7]
  Astrocytic activation in the retinas: inhibited
  Aβ plaques in the retinas: significantly reduces the number if Aβ plaques
  fibril and oligomer conformations of Aβ: reduces both fibril and oligomer conformations of Aβ
  retinal pathologies associated with disease: beneficial effects
[8]
  Abeta immunoreactivity / deposits in brain (6E10): reduction Abeta immunoreactivity
